Laboratory results taken from US12454529B2, “Piperazine cyclic ureas” (SIRONAX LTD., priority 2020, dated 2025).

Test system: HT-29 cells
Assay: HT-29 cell necrosis/necroptosis inhibition (TNF-α + SMAC mimetic + zVAD-FMK; CellTiter-Glo cell viability)
Assay type: cell-based
Conditions: HT-29 cells, TNF-α 10 ng/ml + SMAC mimetic 6 μM + zVAD-FMK 10 μM, 20 hours; geometric mean, 10 points in duplicate; read-out: EC50 (Cell activity; Necrosis/Necroptosis Inhibitory Activity, Compounds 143-323)
Outline: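 HT-29 cells (~5,000/well) were switched to FBS-free McCOY's 5A holding TNF-α (10 ng/ml), SMAC mimetic (6 μM) and zVAD-FMK (10 μM), then dosed with a 10-point 1:3 series for 20 h at 37 °C. CellTiter-Glo luminescence gave viability; geometric mean EC50 from duplicates.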

Row | SMILES | EC50 [nM]
1 | Cc1nc(C)n(-c2nc(N3CCN(C(=O)N4N=CCC4c4ncc(C)s4)CC3)ncc2F)n1 (centres unmarked) [Compound 231, (4-(4-(3,5-dimethyl-1H-1,2,4-triazol-1-yl)-5-fluoropyrimidin-2-yl)piperazin-1-yl)(5-(5-methylthiazol-2-yl)-4,5-dihydro-1H-pyrazol-1-yl)methanone] | 0.1 to 100

Same assay, conditions: Homo sapiens, HT-29, 20 h, read-out: EC50 (Cell activity; Necrosis/Necroptosis Inhibitory Activity, Compounds 143-323)

Row | SMILES | EC50 [nM]
2 | CC(=O)N1Cc2c(-c3nc(N4CCN(C(=O)N5N=CC[C@H]5c5cc(F)cc(C#N)c5)CC4)ncc3F)nn(C)c2C1 [Compound 152, (S)-3-(1-(4-(4-(5-acetyl-1-methyl-1,4,5,6-tetrahydropyrrolo[3,4-c]pyrazol-3-yl)-5-fluoropyrimidin-2-yl)piperazine-1-carbonyl)-4,5-dihydro-1H-pyrazol-5-yl)-5-fluorobenzonitrile] | 1000 to 10000

Same assay, conditions: Homo sapiens; HT-29 cells, TNF-α 10 ng/ml + SMAC mimetic 6 μM + zVAD-FMK 10 μM, 20 hours; geometric mean, 10 points in duplicate; read-out: EC50 (Cell activity; Necrosis/Necroptosis Inhibitory Activity, Compounds 1-142)

Row | SMILES | EC50 [nM]
3 | Cn1ncnc1-c1nc(N2CCN(C(=O)N3N=CC[C@H]3c3cc(F)cc(F)c3)CC2)ncc1F [Compound 65, (S)-(5-(3,5-difluorophenyl)-4,5-dihydro-1H-pyrazol-1-yl)(4-(5-fluoro-4-(1-methyl-1H-1,2,4-triazol-5-yl)pyrimidin-2-yl)piperazin-1-yl)methanone] | 0.1 to 100
4 | Cn1nc(CO)nc1-c1nc(N2CCN(C(=O)N3N=CC[C@H]3c3cc(F)cc(C#N)c3)CC2)ncc1F [Compound 72, (S)-3-fluoro-5-(1-(4-(5-fluoro-4-(3-(hydroxymethyl)-1-methyl-1H-1,2,4-triazol-5-yl)pyrimidin-2-yl)piperazine-1-carbonyl)-4,5-dihydro-1H-pyrazol-5-yl)benzonitrile] | 0.1 to 100
5 | Cc1nc(C#N)nn1-c1nc(N2CCN(C(=O)N3N=CC[C@H]3c3cc(F)cc(C#N)c3)CC2)ncc1F [Compound 139, (S)-1-(2-(4-(5-(3-cyano-5-fluorophenyl)-4,5-dihydro-1H-pyrazole-1-carbonyl)piperazin-1-yl)-5-fluoropyrimidin-4-yl)-5-methyl-1H-1,2,4-triazole-3-carbonitrile] | 0.1 to 100
6 | Cc1n[nH]cc1-c1nc(N2CCN(C(=O)N3N=CC[C@H]3c3cc(F)cc(F)c3)CC2)ncc1F [Compound 13, (S)-(5-(3,5-difluorophenyl)-4,5-dihydro-1H-pyrazol-1-yl)(4-(5-fluoro-4-(3-methyl-1H-pyrazol-4-yl)pyrimidin-2-yl)piperazin-1-yl)methanone] | 0.1 to 100
7 | N#Cc1cc(F)cc([C@@H]2CC=NN2C(=O)N2CCN(c3ncc(F)c(-c4cc(O)nc(O)n4)n3)CC2)c1 [Compound 50, (S)-3-fluoro-5-(1-(4-(5-fluoro-2′,6′-dihydroxy-[4,4′-bipyrimidin]-2-yl)piperazine-1-carbonyl)-4,5-dihydro-1H-pyrazol-5-yl)benzonitrile] | 0.1 to 100
8 | N#Cc1cc(F)cc([C@@H]2CC=NN2C(=O)N2CCN(c3ncc(F)c(-c4cn[nH]c4)n3)CC2)c1 [Compound 54, (S)-3-fluoro-5-(1-(4-(5-fluoro-4-(1H-pyrazol-4-yl)pyrimidinyl)piperazine-1-carbonyl)-4,5-dihydro-1H-pyrazol-5-yl)benzonitrile] | 0.1 to 100
9 | NC(=O)Cn1ccc(-c2nc(N3CCN(C(=O)N4N=CC[C@H]4c4cc(F)cc(F)c4)CC3)ncc2F)n1 [Compound 29, (S)-2-(3-(2-(4-(5-(3,5-difluorophenyl)-4,5-dihydro-1H-pyrazole-1-carbonyl)piperazin-1-yl)-5-fluoropyrimidin-4-yl)-1H-pyrazol-1-yl)acetamide] | 0.1 to 100
10 | Cn1ncc(C#N)c1-c1nc(N2CCN(C(=O)N3N=CC[C@H]3c3cc(F)cc(C#N)c3)CC2)ncc1F [Compound 67, (S)-5-(2-(4-(5-(3-cyano-5-fluorophenyl)-4,5-dihydro-1H-pyrazole-1-carbonyl)piperazin-1-yl)-5-fluoropyrimidin-4-yl)-1-methyl-1H-pyrazole-4-carbonitrile] | 0.1 to 100
11 | Cc1n[nH]c(C)c1-c1nc(N2CCN(C(=O)N3N=CC[C@H]3c3cc(F)cc(C#N)c3)CC2)ncc1F [Compound 94, (S)-3-(1-(4-(4-(3,5-dimethyl-1H-pyrazol-4-yl)-5-fluoropyrimidin-2-yl)piperazine-1-carbonyl)-4,5-dihydro-1H-pyrazol-5-yl)-5-fluorobenzonitrile] | 0.1 to 100
12 | Cn1c(-c2nc(N3CCN(C(=O)N4N=CC[C@H]4c4cc(F)cc(C#N)c4)CC3)ncc2F)cc(=O)n(C)c1=O [Compound 51, (S)-3-fluoro-5-(1-(4-(5-fluoro-1′,3′-dimethyl-2′,6′-dioxo-1′,2′,3′,6′-tetrahydro-[4,4′-bipyrimidin]-2-yl)piperazine-1-carbonyl)-4,5-dihydro-1H-pyrazol-5-yl)benzonitrile] | 0.1 to 100
13 | Cc1nn(CC2CC2)c(C)c1-c1nc(N2CCN(C(=O)N3N=CC[C@H]3c3cc(F)cc(F)c3)CC2)ncc1F [Compound 121, (S)-(4-(4-(1-(cyclopropylmethyl)-3,5-dimethyl-1H-pyrazol-4-yl)fluoropyrimidin-2-yl)piperazin-1-yl)(5-(3,5-difluorophenyl)-4,5-dihydro-1H-pyrazol-1-yl)methanone] | 0.1 to 100
14 | N#Cc1cc(F)cc([C@@H]2CC=NN2C(=O)N2CCN(c3ncc(F)c(-n4cc(C(N)=O)cn4)n3)CC2)c1 [Compound 107, (S)-1-(2-(4-(5-(3-cyano-5-fluorophenyl)-4,5-dihydro-1H-pyrazole-1-carbonyl)piperazin-1-yl)-5-fluoropyrimidin-4-yl)-1H-pyrazole-4-carboxamide] | 0.1 to 100
15 | NC(=O)c1c[nH]c(-c2ccnc(N3CCN(C(=O)N4N=CC[C@H]4c4cc(F)cc(F)c4)CC3)n2)c1 [Compound 10, (S)-5-(2-(4-(5-(3,5-difluorophenyl)-4,5-dihydro-1H-pyrazole-1-carbonyl)piperazin-1-yl)pyrimidin-4-yl)-1H-pyrrole-3-carboxamide] | 0.1 to 100

Same assay, conditions: Homo sapiens; HT-29 cells, TNF-α 10 ng/ml + SMAC mimetic 6 μM + zVAD-FMK 10 μM, 20 hours; geometric mean, 10 points in duplicate; read-out: EC50 (Cell activity; Necrosis/Necroptosis Inhibitory Activity, Compounds 143-323)

Row | SMILES | EC50 [nM]
16 | Cc1nn(-c2ccnc(N3CCN(C(=O)N4N=CC[C@H]4c4cc(F)cc(C#N)c4)CC3)n2)c(C)c1C#N [Compound 274, (S)-1-(2-(4-(5-(3-cyano-5-fluorophenyl)-4,5-dihydro-1H-pyrazole-1-carbonyl)piperazin-1-yl)pyrimidin-4-yl)-3,5-dimethyl-1H-pyrazole-4-carbonitrile] | 0.1 to 100
17 | Cc1nc(C)n(-c2nccc(N3CCN(C(=O)N4N=CC[C@H]4c4cc(F)cc(C#N)c4)CC3)n2)n1 [Compound 244, (S)-3-(1-(4-(2-(3,5-dimethyl-1H-1,2,4-triazol-1-yl)pyrimidin-4-yl)piperazine-1-carbonyl)-4,5-dihydro-1H-pyrazol-5-yl)-5-fluorobenzonitrile] | 0.1 to 100
18 | Cc1cnn(C)c1-c1cc(N2CCN(C(=O)N3N=CC[C@H]3c3cc(F)cc(F)c3)CC2)c(F)cn1 [Compound 149, (S)-(5-(3,5-difluorophenyl)-4,5-dihydro-1H-pyrazol-1-yl)(4-(2-(1,4-dimethyl-1H-pyrazol-5-yl)-5-fluoropyridin-4-yl)piperazin-1-yl)methanone] | 0.1 to 100
19 | Cc1nc(C(F)(F)F)nn1-c1ccnc(N2CCN(C(=O)N3N=CC[C@H]3c3cc(F)cc(C#N)c3)CC2)n1 [Compound 147, (S)-3-fluoro-5-(1-(4-(4-(5-methyl-3-(trifluoromethyl)-1H-1,2,4-triazol-1-yl)pyrimidin-2-yl)piperazine-1-carbonyl)-4,5-dihydro-1H-pyrazol-5-yl)benzonitrile] | 0.1 to 100
20 | Cc1nc(C)n(-c2nc(N3CCN(C(=O)N4N=CCC4c4csc(C)n4)CC3)ncc2F)n1 (centres unmarked) [Compound 213, (4-(4-(3,5-dimethyl-1H-1,2,4-triazol-1-yl)-5-fluoropyrimidin-2-yl)piperazin-1-yl)(5-(2-methylthiazol-4-yl)-4,5-dihydro-1H-pyrazol-1-yl)methanone] | 100 to 1000
21 | Cc1cnn(C)c1-c1ccc(F)c(N2CCN(C(=O)N3N=CCC3c3cccnc3)CC2)n1 (centres unmarked) [Compound 295, (4-(6-(1,4-dimethyl-1H-pyrazol-5-yl)-3-fluoropyridin-2-yl)piperazin-1-yl)(5-(pyridin-3-yl)-4,5-dihydro-1H-pyrazol-1-yl)methanone] | 0.1 to 100
22 | Cc1csc(C2CC=NN2C(=O)N2CCN(c3ncc(F)c(-n4nc(C)nc4C)n3)CC2)n1 (centres unmarked) [Compound 215] | 0.1 to 100
23 | Cc1cnn(C)c1-c1cc(N2CCN(C(=O)N3N=CC[C@H]3c3cc(F)cc(C#N)c3)CC2)c(F)cn1 [Compound 269, (S)-3-(1-(4-(2-(1,4-dimethyl-1H-pyrazol-5-yl)-5-fluoropyridin-4-yl)piperazine-1-carbonyl)-4,5-dihydro-1H-pyrazol-5-yl)-5-fluorobenzonitrile] | 0.1 to 100
24 | Cc1nnc(-c2nc(N3CCN(C(=O)N4N=CC[C@H]4c4cc(F)cc(F)c4)CC3)ncc2F)o1 [Compound 187, (S)-(5-(3,5-difluorophenyl)-4,5-dihydro-1H-pyrazol-1-yl)(4-(5-fluoro-4-(5-methyl-1,3,4-oxadiazol-2-yl)pyrimidin-2-yl)piperazin-1-yl)methanone] | 0.1 to 100
25 | Cc1nc(C)n(-c2nc(N3CCN(C(=O)N4N=CCC4c4ncc(C)s4)CC3)ncc2F)n1 (centres unmarked) [Compound 216, (4-(4-(3,5-dimethyl-1H-1,2,4-triazol-1-yl)-5-fluoropyrimidin-2-yl)piperazin-1-yl)(5-(5-methylthiazol-2-yl)-4,5-dihydro-1H-pyrazol-1-yl)methanone] | 0.1 to 100
26 | Cc1nc(C)n(-c2nc(N3CCN(C(=O)N4N=CCC4c4cc(C#N)cc(F)c4F)CC3)ncc2F)n1 (centres unmarked) [Compound 238, 3-(1-(4-(4-(3,5-dimethyl-1H-1,2,4-triazol-1-yl)-5-fluoropyrimidin-2-yl)piperazine-1-carbonyl)-4,5-dihydro-1H-pyrazol-5-yl)-4,5-difluorobenzonitrile] | 0.1 to 100
